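Exposure lasted 48 hours, with cells grown in 96-well plates and compounds tested at five concentrations. GI50: concentration for 50% inhibition of growth. TGI is the concentration that stops growth completely.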
Tests used:
Test in all cases: DTP human tumour cell line panel, 48 h
[1] = tested on: SN12C renal
[2] = tested on: SW-620 colon
[3] = tested on: TK-10 renal
[4] = tested on: SF-295 CNS
[5] = tested on: SK-OV-3 ovarian
[6] = tested on: UACC-62 melanoma
[7] = tested on: OVCAR-5 ovarian
[8] = tested on: A498 renal
[9] = tested on: MDA-MB-231 breast

Row | SMILES | TGI [1] | TGI [2] | TGI [3] | TGI [4] | TGI [5] | TGI [6] | TGI [7] | TGI [8] | GI50 [9] | TGI [9] | GI50 [1] | GI50 [2] | GI50 [3] | GI50 [4] | GI50 [5] | GI50 [6] | GI50 [7] | GI50 [8]
1 | O=C(NCC(O)CNC(=O)C(F)(F)F)C(F)(F)F | > 100 µM | > 100 µM | > 100 µM | > 100 µM | > 100 µM | > 100 µM | > 100 µM | > 100 µM |  |  |  |  |  |  |  |  |  | 
2 | CC(C)(C)OC(=O)NC(CO)c1cccc(OCc2ccccc2)c1 (configuration not stated) | > 100 µM | > 100 µM | > 100 µM | > 100 µM | > 100 µM | > 100 µM | > 100 µM | > 100 µM |  |  |  |  |  |  |  |  |  | 
3 | COc1ccc(OC(C(=O)O)c2ccccc2)c2c1CCCC2=O (configuration not stated) | > 100 µM | > 100 µM | > 100 µM | > 100 µM | > 100 µM | > 100 µM | > 100 µM | > 100 µM |  |  |  |  |  |  |  |  |  | 
4 | CNC(=O)c1cccc2c(Nc3ccc(NS(C)(=O)=O)cc3OC)c3cccc(C)c3nc12 | 0.927 µM | 5.5 µM | 8.2 µM | 0.555 µM | 0.907 µM | 1.38 µM | 3.54 µM | 1.15 µM |  |  |  |  |  |  |  |  |  | 
5 | c1ccc2c(c1)[nH]c1c2nc2ncccn21 | > 100 µM | > 100 µM | > 100 µM | > 100 µM | > 100 µM | > 100 µM | > 100 µM | > 100 µM |  |  |  |  |  |  |  |  |  | 
6 | O=c1oc(=O)c2oc3ccccc3oc1=2 | > 100 µM | > 100 µM | > 100 µM | > 100 µM | > 100 µM | > 100 µM | > 100 µM | > 100 µM |  |  |  |  |  |  |  |  |  | 
7 | O=C(NC1C2CC3CC(C2)CC1C3)c1cc(/C=C/c2ccccc2)[nH]c(=S)n1 (configuration not stated) |  | > 100 µM | > 100 µM | > 100 µM | > 100 µM | > 100 µM | > 100 µM | > 100 µM |  |  |  |  |  |  |  |  |  | 
8 | O=S(O)CCCSSc1ccccc1 | > 100 µM | > 100 µM | > 100 µM | > 100 µM | > 100 µM | > 100 µM | > 100 µM | > 100 µM |  |  |  |  |  |  |  |  |  | 
9 | O=C1CC(O)(c2ccccc2)C(c2ccccc2)=C1c1ccccc1 (configuration not stated) | > 100 µM | > 100 µM | > 100 µM | > 100 µM | > 100 µM | > 100 µM | > 100 µM |  |  |  |  |  |  |  |  |  |  | 
10 | CCc1ccc2c(c1)N(CCO)C1=C(C(=O)OC1)C2c1cccc(Cl)c1 (configuration not stated) | 19 µM | 21.7 µM | 28.8 µM | 15.5 µM | 10.7 µM | 18.5 µM | 23.4 µM | 11.4 µM | 1.66 µM | 15.3 µM | 2.03 µM | 0.416 µM | 6.69 µM | 0.382 µM | 0.663 µM | 0.537 µM | 4.61 µM | 0.36 µM
11 | CCC[CH2][Sn]1([CH2]CCC)[O]C(=O)c2ccc(C)cc2[O]1 | 1.77 µM | 0.4 µM | 0.766 µM | 2.52 µM | 2.75 µM | 1.57 µM | 3.05 µM | 1.06 µM |  |  | 0.511 µM | 0.174 µM | 0.297 µM | 1.21 µM | 1.4 µM | 0.437 µM | 1.67 µM | 0.367 µM
12 | N#C/C(=C/Sc1ccccc1)C(=O)O | 57.5 µM | > 100 µM | > 100 µM | > 100 µM | > 100 µM | > 100 µM | 74.6 µM |  |  |  |  |  |  |  |  |  |  | 
13 | COC(=O)c1ccc(Cl)cc1NC(=O)C1CCCCC1 | > 100 µM | > 100 µM | > 100 µM | > 100 µM |  |  | > 100 µM |  |  |  |  |  |  |  |  |  |  | 
14 | COc1ccc2oc(C(=O)O)c3c2c1CCC3 | > 100 µM | > 100 µM | > 100 µM | > 100 µM | > 100 µM | > 100 µM |  | > 100 µM |  |  |  |  |  |  |  |  |  | 
15 | O=C1c2ccccc2C(=O)N1C/C=C/CO | > 100 µM | > 100 µM | > 100 µM |  | > 100 µM | > 100 µM |  | > 100 µM |  |  |  |  |  |  |  |  |  | 
16 | OC1C2CCC1C1C3C=CC(C3)C21 (configuration not stated) |  | > 100 µM | > 100 µM | > 100 µM | > 100 µM | > 100 µM | > 100 µM |  |  |  |  |  |  |  |  |  |  | 
17 | NCCN1C(=O)C2C3c4ccccc4C(c4ccccc43)C2C1=O (configuration not stated) | > 100 µM | > 100 µM | > 100 µM | > 100 µM | > 100 µM | > 100 µM | > 100 µM | > 100 µM |  |  |  |  |  |  |  |  |  | 
18 | C[n+]1ccc(-c2c3nc(c(-c4cc[n+](C)cc4)c4ccc([n-]4)c(-c4cc[n+](C)cc4)c4nc(c(-c5cc[n+](C)cc5)c5ccc2[n-]5)C=C4)C=C3)cc1.[I-].[Zn+2] | 43.3 µM | 45.7 µM | 38 µM | > 100 µM | 69.5 µM | > 100 µM | > 100 µM | 31.3 µM |  |  | 19.7 µM | 24.1 µM | 15.2 µM | 38 µM | 33 µM | 27.5 µM | > 100 µM | 8.34 µM
19 | CCOc1ccccc1NC(=O)CCc1n[nH]c(=S)o1 | > 100 µM | > 100 µM | > 100 µM | > 100 µM | > 100 µM | > 100 µM |  |  |  |  |  |  |  |  |  |  |  | 
20 | COc1cc2c(cc1OC)C(=O)Cc1ccc(OC)c(OC)c1CN(C)CC2 | > 100 µM | > 100 µM | > 100 µM |  | > 100 µM | > 100 µM | > 100 µM | 48.4 µM |  |  |  |  |  |  |  |  |  | 

Reference: PubChem BioAssay (NCI)
